Source: patent US10800777B2, “Polymorphic forms of VENCLEXTA” (Mylan Laboratories Limited, priority 2016, dated 2020)
Entries after “also recorded” stand apart in the source; their conditions may differ. Each block holds one compound with its values, some of them ahead of it.

Assay: Storage stability of venetoclax polymorphs, analyzed by PXRD for polymorph integrity
Type: physicochemical
Description: The present invention provides new polymorphs of venetoclax which may be characterized by powder X-ray diffraction (PXRD). Thus, samples of each disclosed polymorph were analyzed by PXRD on a BRUKER D-8 Discover powder diffractometer equipped with a goniometer of θ/2θ configuration and Lynx Eye detector. The Cu-anode X-ray tube was operated at 40 kV and 30 mA. The experiments were conducted over the […] of 2.0°-50.0°, 0.030° step size, and 0.4 seconds step time.
Thus, the stability of samples of amorphous venetoclax, as well as crystalline forms M9, M10, and M21 were stored at 40° C./75% relative humidity (RH) and at 25° C./60% relative humidity (RH) for 3 months. The samples were analyzed by PXRD for polymorph integrity.

PXRD (polymorph integrity) (at 25° C./60% RH, 1 months): Stable
PXRD (polymorph integrity) (at 25° C./60% RH, 2 months): Stable
PXRD (polymorph integrity) (at 25° C./60% RH, 3 months): Stable
PXRD (polymorph integrity) (at 25° C./60% RH, 3 months, listed as amorphous venetoclax): no change in PXRD pattern
PXRD (polymorph integrity) (at 25° C./60% RH, 15 days): Stable
PXRD (polymorph integrity) (at 25° C./60% RH, Initial): Amorphous
PXRD (polymorph integrity) (at 40° C./75% RH, 1 months): Stable
PXRD (polymorph integrity) (at 40° C./75% RH, 2 months): Stable
PXRD (polymorph integrity) (at 40° C./75% RH, 3 months): Stable
PXRD (polymorph integrity) (at 40° C./75% RH, 3 months, listed as amorphous venetoclax): no change in PXRD pattern
PXRD (polymorph integrity) (at 40° C./75% RH, 15 days): Stable
PXRD (polymorph integrity) (at 40° C./75% RH, Initial): Amorphous
SMILES: CC1(C)CCC(CN2CCN(c3ccc(C(=O)NS(=O)(=O)c4ccc(NCC5CCOCC5)c([N+](=O)[O-])c4)c(Oc4cnc5[nH]ccc5c4)c3)CC2)=C(c2ccc(Cl)cc2)C1 [Amorphous, 4-[4-[[2-(4-chlorophenyl)-4,4-dimethylcyclohexen-1-yl]methyl]piperazin-1-yl]-N-[3-nitro-4-(oxan-4-ylmethylamino)phenyl]sulfonyl-2-(1H-pyrrolo[2,3-b]pyridin-5-yloxy)benzamide]

PXRD (polymorph integrity) (at 25° C./60% RH, Initial, listed as M9): Crystalline
PXRD (polymorph integrity) (at 40° C./75% RH, Initial, listed as M9): Crystalline
SMILES: CC1(C)CCC(CN2CCN(c3ccc(C(=O)NS(=O)(=O)c4ccc(NCC5CCOCC5)c([N+](=O)[O-])c4)c(Oc4cnc5[nH]ccc5c4)c3)CC2)=C(c2ccc(Cl)cc2)C1 [form M9, 4-[4-[[2-(4-chlorophenyl)-4,4-dimethylcyclohexen-1-yl]methyl]piperazin-1-yl]-N-[3-nitro-4-(oxan-4-ylmethylamino)phenyl]sulfonyl-2-(1H-pyrrolo[2,3-b]pyridin-5-yloxy)benzamide]
PXRD (polymorph integrity) (at 25° C./60% RH, 3 months, listed as M9): no change in PXRD pattern; also recorded: Stable
PXRD (polymorph integrity) (at 40° C./75% RH, 3 months, listed as M9): no change in PXRD pattern; also recorded: Stable

PXRD (polymorph integrity) (at 25° C./60% RH, Initial, listed as M10): Crystalline
PXRD (polymorph integrity) (at 40° C./75% RH, Initial, listed as M10): Crystalline
SMILES: CC1(C)CCC(CN2CCN(c3ccc(C(=O)NS(=O)(=O)c4ccc(NCC5CCOCC5)c([N+](=O)[O-])c4)c(Oc4cnc5[nH]ccc5c4)c3)CC2)=C(c2ccc(Cl)cc2)C1 [form M10, 4-[4-[[2-(4-chlorophenyl)-4,4-dimethylcyclohexen-1-yl]methyl]piperazin-1-yl]-N-[3-nitro-4-(oxan-4-ylmethylamino)phenyl]sulfonyl-2-(1H-pyrrolo[2,3-b]pyridin-5-yloxy)benzamide]
PXRD (polymorph integrity) (at 25° C./60% RH, 3 months, listed as M10): no change in PXRD pattern; also recorded: Stable
PXRD (polymorph integrity) (at 40° C./75% RH, 3 months, listed as M10): no change in PXRD pattern; also recorded: Stable

PXRD (polymorph integrity) (at 25° C./60% RH, Initial, listed as M21): Crystalline
PXRD (polymorph integrity) (at 40° C./75% RH, Initial, listed as M21): Crystalline
SMILES: CC1(C)CCC(CN2CCN(c3ccc(C(=O)NS(=O)(=O)c4ccc(NCC5CCOCC5)c([N+](=O)[O-])c4)c(Oc4cnc5[nH]ccc5c4)c3)CC2)=C(c2ccc(Cl)cc2)C1 [form M21, 4-[4-[[2-(4-chlorophenyl)-4,4-dimethylcyclohexen-1-yl]methyl]piperazin-1-yl]-N-[3-nitro-4-(oxan-4-ylmethylamino)phenyl]sulfonyl-2-(1H-pyrrolo[2,3-b]pyridin-5-yloxy)benzamide]
PXRD (polymorph integrity) (at 25° C./60% RH, 3 months, listed as M21): no change in PXRD pattern; also recorded: Stable
PXRD (polymorph integrity) (at 40° C./75% RH, 3 months, listed as M21): no change in PXRD pattern; also recorded: Stable
